Literature values, collected in paper PMC7664160 (ACS infectious diseases, 2020).

Test system: intracellular C. neoformans

Q: For `C[C@@H]1[C@H](O)[C@@H](C)/C=C/C=C/C=C/C=C/C=C/C=C/C=C/[C@H](O[C@@H]2O[C@H](C)[C@@H](O)[C@H](N)[C@@H]2O)C[C@@H]2O[C@](O)(C[C@@H](O)C[C@@H](O)[C@H](O)CC[C@@H](O)C[C@@H](O)CC(=O)O[C@H]1C)C[C@H](O)[C@H]2C(=O)O` [amphotericin B], which “fungicidal activity against intraphagocytic C. neoformans” value is on record?
A: The value was “neither fluconazole nor amphotericin B have fungicidal activity”.

Q: For `OC(Cn1cncn1)(Cn1cncn1)c1ccc(F)cc1F` [fluconazole], which “fungicidal activity against intraphagocytic C. neoformans” value is on record?
A: The value was “neither fluconazole nor amphotericin B have fungicidal activity”.
